Literature values as cited in PMC2912428 (Bioconjugate chemistry, 2010).

Test system: SAv-Y43A
Details: SAv-Y43A vs WT SAv ref 21

O=C(O)CCCC[C@@H]1SC[C@@H]2NC(=O)N[C@@H]21 [biotin, D-biotin]
lower affinity of SAv-Y43A than wild-type SAv: 67 fold
